Source: US4604386A, “3-(alkynylalkyloxy) cephalosporins” (Eli Lilly and Company, priority 1984, dated 1986)

How the values were obtained:
in vivo [1] = settings: rat, po, 20 mg/kg
[2] = mouse, in vivo
in vivo [3] = settings: mouse, po, 20 mg/kg
[4] = rat, in vivo
Escherichia coli N10 = assay: standard agar dilution-method test (MIC); assay type: cell-based
Description: (§1) The MIC values were obtained by the standard agar dilution-method test.

[5] = system: Hemophilus influenzae C.L.; assay: standard agar dilution-method test (MIC); assay type: cell-based
Description: as §1

Escherichia coli TEM = assay: standard agar dilution-method test (MIC); assay type: cell-based
Description: as §1

[6] = system: Klebsiella pneumoniae X26; assay: standard agar dilution-method test (MIC); assay type: cell-based
Description: as §1

[7] = system: Staphylococcus aureus X400; assay: standard agar dilution-method test (MIC); assay type: cell-based
Description: as §1

Escherichia coli EC14 = assay: standard agar dilution-method test (MIC); assay type: cell-based
Description: as §1

[8] = system: Klebsiella pneumoniae X65; assay: standard agar dilution-method test (MIC); assay type: cell-based
Description: as §1

[9] = system: Streptococcus group D 2041; assay: standard agar dilution-method test (MIC); assay type: cell-based
Description: as §1

[10] = system: Staphylococcus aureus V41; assay: standard agar dilution-method test (MIC); assay type: cell-based
Description: as §1

[11] = system: Staphylococcus epidermidis EPI2; assay: standard agar dilution-method test (MIC); assay type: cell-based
Description: as §1

Hemophilus influenzae 76 = assay: standard agar dilution-method test (MIC); assay type: cell-based
Description: as §1

[12] = system: Streptococcus pneumoniae Park I; assay: standard agar dilution-method test (MIC); assay type: cell-based
Description: as §1

[13] = system: Staphylococcus aureus S13E; assay: standard agar dilution-method test (MIC); assay type: cell-based
Description: as §1

[14] = system: Staphylococcus epidermidis EPI1; assay: standard agar dilution-method test (MIC); assay type: cell-based
Description: as §1

[15] = system: Streptococcus pyogenes C203; assay: standard agar dilution-method test (MIC); assay type: cell-based
Description: as §1

[16] = system: Streptococcus group D X66; assay: standard agar dilution-method test (MIC); assay type: cell-based
Description: (§2) Antibiotic activity of selected compounds of Formual 1 is illustrated by the following in vitro and in vivo test data in Table I, the minimum inhibitory concentration (MIC) for representative compounds against a wide range of gram-positive and gram-negative bacteria is presented. The MIC values were obtained by the standard agar dilution-method test.

[17] = system: Klebsiella pneumoniae KAE; assay: standard agar dilution-method test (MIC); assay type: cell-based
Description: as §2

[18] = system: Staphylococcus aureus X1.1; assay: standard agar dilution-method test (MIC); assay type: cell-based
Description: as §1

Compound	Minimum Inhibitory Concentration (Escherichia coli N10) [µg/mL]	Minimum Inhibitory Concentration [5] [µg/mL]	Minimum Inhibitory Concentration (Escherichia coli TEM) [µg/mL]	Minimum Inhibitory Concentration [6] [µg/mL]	Minimum Inhibitory Concentration [7] [µg/mL]	Minimum Inhibitory Concentration (Escherichia coli EC14) [µg/mL]	Minimum Inhibitory Concentration [8] [µg/mL]	Minimum Inhibitory Concentration [9] [µg/mL]	Minimum Inhibitory Concentration [10] [µg/mL]	Minimum Inhibitory Concentration [11] [µg/mL]	Minimum Inhibitory Concentration (Hemophilus influenzae 76) [µg/mL]	Minimum Inhibitory Concentration [12] [µg/mL]	Minimum Inhibitory Concentration [13] [µg/mL]	Minimum Inhibitory Concentration [14] [µg/mL]	Minimum Inhibitory Concentration [15] [µg/mL]	Minimum Inhibitory Concentration [16] [µg/mL]	Minimum Inhibitory Concentration [17] [µg/mL]	Minimum Inhibitory Concentration [18] [µg/mL]	also measured
C#CCOC1=C(C(=O)O)N2C(=O)[C@@H](NC(=O)[C@H](N)c3ccccc3)[C@H]2SC1 [Test Compound 1, 7-(R)-[2'-(R)-2'-amino-2'-phenylacetamido]-3-(prop-1'-yn-3'-yloxy)-3-cephem-4-carboxylic acid zwitterion]	–	–	–	–	–	–	–	–	–	–	–	–	–	–	–	–	–	–	concentration at 20 min (in vivo [1]): 3900 ng/mL; concentration at 1 h (in vivo [1]): 15900 ng/mL; concentration at 2 h (in vivo [1]): 19300 ng/mL; concentration at 4 h (in vivo [1]): 14700 ng/mL; concentration at 6 h (in vivo [1]): 12300 ng/mL; concentration at 9 h (in vivo [1]): 8500 ng/mL; oral absorption characteristics in mice [2]: excellent oral absorption characteristics; concentration at 20 min (in vivo [3]): 23100 ng/mL; concentration at 40 min (in vivo [3]): 12400 ng/mL; concentration at 1 h (in vivo [3]): 4000 ng/mL; concentration at 2 h (in vivo [3]): 850 ng/mL; plasma levels in rats [4]: high plasma levels
Benzhydryl 7-(R)-[(2'R)-2'-(N-(t-butylcarbamato))-2'-(para-hydroxyphenyl)acetamido]-3-(prop-1'-yn-3'-yloxy)-3-cephem-4-carboxylate [Example 4]	4	8	8	2	64	2	2	32	8	1	8	0.5	16	8	0.06	64	64	–	–
Para-nitrobenzyl 7-(R)-[(2'R)-2'-(N-(t-butylcarbamato))-2' -phenylacetamido]-3-(prop-1'-yn-3'-yloxy)-3-cephem-4-carboxylate [Example 3]	128	128	128	64	128	64	128	128	128	8	128	1	128	128	0.5	128	128	8	–
Para-nitrobenzyl 7-(R)-phenoxyacetamido-3-(but-2'-yn-4'-yloxy)-3-cephem-4-carboxylate [Example 6]	8	8	16	4	64	4	4	32	64	1	4	0.25	64	16	0.06	128	128	0.5	–
Para-nitrobenzyl 7-(R)-phenoxyacetamido-3-(prop-1'-yn-3'-yloxy)-3-cephem-4-carboxylate [Example 1]	4	4	8	2	64	2	4	128	32	2	4	1	32	8	0.25	128	128	2	–
benzhydryl 7-(R)-[(2'R)-2'-(N-(t-butylcarbamato))-2'-phenylacetamido]-3-(prop-1'-yn-3'-yloxy)-3-cephem-4-carboxylate [Example 2]	16	4	16	2	128	4	4	64	128	2	8	0.25	128	32	0.06	128	128	2	–
